Test results: paper PMC12060211, “Development of Efficient Covalent Inactivators of a Fungal Aspartate Semialdehyde Dehydrogenase” (Drug Development Research, 2025)

These molecules were tested against T1, CalASADH (C. albicans ASADH, aspartate semialdehyde dehydrogenase) (Candida albicans, UniProt Q5ALM0) (assay: time-dependent inactivation, NADPH formation at […] nm, kobs = kinact[I]/(Ki+[I])). Conditions: covalent; irreversible inactivation; residual activity read at pH 8.6 with 0.3 mM L-aspartate-beta-semialdehyde, 20 mM phosphate, 1.5 mM NADP.
T1 construct: gene HOM2; catalytic Cys-156; PDB 3hsk used as docking model of the same protein; ATCC 10231 is only the growth-test strain
T1 sequence (Q5ALM0 1-365): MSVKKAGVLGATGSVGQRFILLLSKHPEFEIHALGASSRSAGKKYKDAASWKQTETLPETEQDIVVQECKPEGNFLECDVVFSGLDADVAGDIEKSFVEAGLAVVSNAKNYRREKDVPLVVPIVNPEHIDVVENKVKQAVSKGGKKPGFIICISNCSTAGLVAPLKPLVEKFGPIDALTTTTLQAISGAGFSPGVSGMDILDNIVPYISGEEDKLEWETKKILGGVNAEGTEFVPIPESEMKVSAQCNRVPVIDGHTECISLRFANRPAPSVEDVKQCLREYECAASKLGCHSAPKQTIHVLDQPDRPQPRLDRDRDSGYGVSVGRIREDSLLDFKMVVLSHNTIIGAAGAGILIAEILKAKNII
Type: biochemical
`CS(=O)(=O)/C=C/c1ccc(O)cc1` [compound 1, vinyl sulfone, R1 methyl, R2 1,4-phenol] showed a KI (inactivation) of 538000 ± 300000 nM. In the case of `CC(=O)Nc1ccc(/C=C/S(C)(=O)=O)cc1` [compound 2, vinyl sulfone, R1 methyl, R2 acetanilide], the KI (inactivation) is reported as 203000 ± 83000 nM. In the case of `CS(=O)(=O)/C=C/c1ccc(C(N)=O)cc1` [compound 3, vinyl sulfone, R1 methyl, R2 benzamide], the KI (inactivation) is reported as 531000 ± 134000 nM. Work on `CS(=O)(=O)/C=C/c1ccc(O)cn1` [compound 4, vinyl sulfone, R1 methyl, R2 5-hydroxy-2-pyridine] yielded a KI (inactivation) of 610 ± 91 nM. `CS(=O)(=O)/C=C/c1ccc([N+](=O)[O-])s1` [compound 5, vinyl sulfone, R1 methyl, R2 5-nitrothiophene] gave a KI (inactivation) of 2100 ± 600 nM. In the case of `CS(=O)(=O)/C=C/c1ccnc2ccccc12` [compound 6, vinyl sulfone, R1 methyl, R2 4-quinoline], the KI (inactivation) is reported as 4400 ± 890 nM. In the case of `CS(=O)(=O)/C=C/c1ccc2ccccc2n1` [compound 7, vinyl sulfone, R1 methyl, R2 2-quinoline], the KI (inactivation) is reported as 960 ± 240 nM. With `CS(=O)(=O)/C=C/c1cccc2cnccc12` [compound 8, vinyl sulfone, R1 methyl, R2 5-isoquinoline] the KI (inactivation) was 650 ± 110 nM. For `O=S(=O)(/C=C/c1cccc2cnccc12)C1CC1` [compound 9, vinyl sulfone, R1 cyclopropyl, R2 5-isoquinoline], the KI (inactivation) was 2480 ± 410 nM. In the case of `O=S(=O)(/C=C/c1ccncc1)c1ccccn1` [compound 10, vinyl sulfone, R1 2-pyridinyl, R2 4-pyridinyl], the KI (inactivation) is reported as 2200 ± 180 nM. In the case of `O=S(=O)(/C=C/c1ccncc1)N1CCOCC1` [compound 11, vinyl sulfonamide, R1 2-morpholino, R2 4-pyridinyl], the KI (inactivation) is reported as 1170 ± 130 nM. Work on `CS(=O)(=O)/C=C/C(N)=O` [compound 12, sulfonyl acrylamide, R1 methyl, R2 amide] yielded a KI (inactivation) of 2700 ± 620 nM. Work on `NC(=O)/C=C/S(=O)(=O)c1ccccc1` [compound 13, sulfonyl acrylamide, R1 phenyl, R2 amide] yielded a KI (inactivation) of 2300 ± 320 nM. `CS(=O)(=O)/C=C/C[C@H](N)C(=O)O` [compound 14, vinyl sulfone, R1 methyl, R2 alanyl] was tested, and the KI (inactivation) was 7600 ± 1200 nM. With `CN(C)S(=O)(=O)/C=C/C[C@H](N)C(=O)O` [compound 15, vinyl sulfonamide, R1 dimethylamino, R2 alanyl] the KI (inactivation) was 27900 ± 4300 nM. For `N[C@@H](C/C=C/S(=O)(=O)Cc1ccccc1)C(=O)O` [compound 16, vinyl sulfone, R1 benzyl, R2 alanyl], the KI (inactivation) was 1800 ± 820 nM. In the case of `CC(C)S(=O)(=O)/C=C/C[C@H](N)C(=O)O` [compound 17, vinyl sulfone, R1 isopropyl, R2 alanyl], the KI (inactivation) is reported as 760 ± 150 nM. `N[C@@H](C/C=C/S(=O)(=O)C1CC1)C(=O)O` [compound 18, vinyl sulfone, R1 cyclopropyl, R2 alanyl] was tested, and the KI (inactivation) was 390 ± 93 nM. Molecule `CC(=O)CS(C)(=O)=O` [compound 19, sulfonyl ketone, R1 methyl, R2 methyl] has a KI (inactivation) of 31700 ± 4900 nM. With `CS(=O)(=O)CC(=O)c1ccncc1` [compound 20, sulfonyl ketone, R1 methyl, R2 4-pyridinyl] the KI (inactivation) was 59000 ± 22000 nM. Work on `CS(=O)(=O)CC(=O)c1cccnc1` [compound 21, sulfonyl ketone, R1 methyl, R2 3-pyridinyl] yielded a KI (inactivation) of 25900 ± 6600 nM. In the case of `CS(=O)(=O)CC(=O)c1ccccn1` [compound 22, sulfonyl ketone, R1 methyl, R2 2-pyridinyl], the KI (inactivation) is reported as 6080 ± 760 nM. `CS(=O)(=O)CC(=O)c1ccccc1` [compound 23, sulfonyl ketone, R1 methyl, R2 phenyl] gave a KI (inactivation) of 2200 ± 770 nM. Molecule `O=C(/C=C/c1ccncc1)N1CCOCC1` [compound 24, acrylamide, R1 morpholino, R2 4-pyridinyl] has a KI (inactivation) of 4410 ± 850 nM. Work on `NC(=O)/C=C/c1ccncc1` [compound 25, acrylamide, R1 amino, R2 4-pyridinyl] yielded a KI (inactivation) of 3790 ± 1600 nM.
